Laboratory results from patent publication US10730874B2 (Shire Human Genetic Therapies, Inc., priority 2018, dated 2020).
Like-named read-outs stand apart in the source and are kept apart here.

Target: human activated kallikrein enzyme (plasma kallikrein) (Homo sapiens (Human), UniProt P03952)
Experiment: Inhibition of human activated plasma kallikrein, fluorogenic peptide substrate assay, 500 pM enzyme format
Format: biochemical
Conditions: read-out: Primary Dose Response Assay: Average EC50
Summary of the method: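 Buffer 20 mM Tris pH 7.5, EDTA, NaCl, PEG-400, Triton X-100; 300 uM Pro-Phe-Arg-AMC; enzyme–inhibitor preincubation 30 min RT. Format one: 500 pM kallikrein, 10 min RT reaction; format two: 5 pM kallikrein, 18 h RT reaction. Fluorescence read at 460 nm (380 nm excitation).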

[1] = 500 pM activated kallikrein enzyme, 300 uM Pro-Phe-Arg-7-amido-4-methylcoumarin substrate, 30 min preincubation, 10 min at RT

human activated kallikrein enzyme (plasma kallikrein), sequence (P03952 391-638): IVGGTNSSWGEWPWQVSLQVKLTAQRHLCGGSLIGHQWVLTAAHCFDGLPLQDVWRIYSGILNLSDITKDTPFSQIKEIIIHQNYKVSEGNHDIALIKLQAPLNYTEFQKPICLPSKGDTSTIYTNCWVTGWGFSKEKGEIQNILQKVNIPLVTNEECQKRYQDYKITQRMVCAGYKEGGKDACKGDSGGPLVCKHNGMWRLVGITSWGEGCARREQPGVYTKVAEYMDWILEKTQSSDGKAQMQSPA
human activated kallikrein enzyme (plasma kallikrein), sequence (P03952 20-390 partner): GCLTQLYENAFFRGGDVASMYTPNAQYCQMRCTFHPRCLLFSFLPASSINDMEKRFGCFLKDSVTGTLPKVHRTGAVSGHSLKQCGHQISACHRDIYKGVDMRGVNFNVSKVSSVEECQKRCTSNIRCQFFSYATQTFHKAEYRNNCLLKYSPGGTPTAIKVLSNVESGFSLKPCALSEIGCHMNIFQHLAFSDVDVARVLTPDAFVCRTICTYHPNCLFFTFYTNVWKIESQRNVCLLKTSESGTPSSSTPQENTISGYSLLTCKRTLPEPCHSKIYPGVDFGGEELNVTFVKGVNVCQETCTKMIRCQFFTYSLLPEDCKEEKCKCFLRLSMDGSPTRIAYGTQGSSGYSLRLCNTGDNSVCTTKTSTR

| Structure (SMILES) | EC50 [1] | EC50 (comparative compounds (Table II), assay format with 500 pM (500 μM in the source) activated kallikrein) |
| --- | --- | --- |
| CCOC(=O)CCc1nn(Cc2cn3cc(C4CC4)ccc3n2)cc1C(=O)NCc1ncn2ccc(Cl)cc12 [Example I-93, ethyl 3-(4-(((7-chloroimidazo[1,5-a]pyridin-1-yl)methyl)carbamoyl)-1-((6-cyclopropylimidazo[1,2-a]pyridin-2-yl)methyl)-1H-pyrazol-3-yl)propanoate] | < 1 nM |  |
| O=C(NCc1ncn2ccc(Cl)c(F)c12)c1cn(Cc2cn3cc(C4CC4)cc(CS(=O)(=O)NCC(F)(F)F)c3n2)nn1 [Example I-281, N-((7-chloro-8-fluoroimidazo[1,5-a]pyridin-1-yl)methyl)-1-((6-cyclopropyl-8-((N-(2,2,2-trifluoroethyl)sulfamoyl)methyl)imidazo[1,2-a]pyridin-2-yl)methyl)-1H-1,2,3-triazole-4-carboxamide] | < 1 nM |  |
| O=C(NCc1ncn2ccc(Cl)c(F)c12)c1cn(Cc2cn3ncccc3n2)cn1 [Example I-291, N-((7-chloro-8-fluoroimidazo[1,5-a]pyridin-1-yl)methyl)-1-(imidazo[1,2-b]pyridazin-2-ylmethyl)-1H-imidazole-4-carboxamide] | 10 to 100 nM |  |
| Cc1ccc2nc(Cn3cc(C(=O)NCc4cnc5ccc(Cl)cn45)cn3)cn2c1 [reference compound] |  | 100 to 2000 nM |
| C=Cc1ccn2cnc(CNC(=O)c3cnn(Cc4cn5cc(C6CC6)ccc5n4)c3)c2c1 [Example I-118, 1-((6-cyclopropylimidazo[1,2-a]pyridin-2-yl)methyl)-N-((7-vinylimidazo[1,5-a]pyridin-1-yl)methyl)-1H-pyrazole-4-carboxamide] | 1 to 10 nM |  |
| O=C(NCc1ncn2ccc(Cl)c(F)c12)c1nnc(Cc2cn3nc(C4CC4)ccc3n2)o1 [Example I-156, N-((7-chloro-8-fluoroimidazo[1,5-a]pyridin-1-yl)methyl)-5-((6-cyclopropylimidazo[1,2-b]pyridazin-2-yl)methyl)-1,3,4-oxadiazole-2-carboxamide] | < 1 nM |  |
| O=C(NCc1ncn2ccc(Cl)c(F)c12)c1cn(Cc2cn3cc(C4CC4)cc(C(F)F)c3n2)nn1 [Example I-192, N-((7-chloro-8-fluoroimidazo[1,5-a]pyridin-1-yl)methyl)-1-((6-cyclopropyl-8-(difluoromethyl)imidazo[1,2-a]pyridin-2-yl)methyl)-1H-1,2,3-triazole-4-carboxamide] | < 1 nM |  |
| Nc1ccc(C2CC2)c2nc(Cn3cc(C(=O)NCc4ncn5ccc(Cl)cc45)cn3)cn12 [Example I-89, 1-((5-amino-8-cyclopropylimidazo[1,2-a]pyridin-2-yl)methyl)-N-((7-chloroimidazo[1,5-a]pyridin-1-yl)methyl)-1H-pyrazole-4-carboxamide] | 100 to 2000 nM |  |
| O=C(NCc1ncn2ccc(Cl)c(F)c12)c1cn(Cc2cc3cc(C4CC4)ccc3o2)nn1 [Example I-191, N-((7-chloro-8-fluoroimidazo[1,5-a]pyridin-1-yl)methyl)-1-((5-cyclopropylbenzofuran-2-yl)methyl)-1H-1,2,3-triazole-4-carboxamide] | 1 to 10 nM |  |
| O=C(NCc1ncn2ccc(C3CC3)cc12)c1cnn(Cc2cn3cc(C4CC4)ccc3n2)c1 [Example I-48, 1-((6-cyclopropylimidazo[1,2-a]pyridin-2-yl)methyl)-N-((7-cyclopropylimidazo[1,5-a]pyridin-1-yl)methyl)-1H-pyrazole-4-carboxamide] | 100 to 2000 nM |  |
| O=C(O)c1ccc(-n2c(Cn3cc(C(=O)NCc4ncn5ccc(Cl)c(F)c45)nn3)cc3cc(C4CC4)ccc32)cc1 [Example I-259, 4-(2-((4-(((7-chloro-8-fluoroimidazo[1,5-a]pyridin-1-yl)methyl)carbamoyl)-1H-1,2,3-triazol-1-yl)methyl)-5-cyclopropyl-1H-indol-1-yl)benzoic acid] | 1 to 10 nM |  |
| CC(C)(O)CCc1cc(C2CC2)cn2cc(Cn3cc(C(=O)NCc4ncn5ccc(Cl)cc45)cn3)nc12 [Example I-119, N-((7-chloroimidazo[1,5-a]pyridin-1-yl)methyl)-1-((6-cyclopropyl-8-(3-hydroxy-3-methylbutyl)imidazo[1,2-a]pyridin-2-yl)methyl)-1H-pyrazole-4-carboxamide] | < 1 nM |  |
| CC(c1cn2cc(C3CC3)ccc2n1)n1cc(C(=O)NCc2ncn3ccc(Cl)c(F)c23)nn1 (stereo not shown) [Example I-198, N-((7-chloro-8-fluoroimidazo[1,5-a]pyridin-1-yl)methyl)-1-(1-(6-cyclopropylimidazo[1,2-a]pyridin-2-yl)ethyl)-1H-1,2,3-triazole-4-carboxamide] | < 1 nM |  |
| O=C(O)c1ccc2nc(Cn3cc(C(=O)NCc4ncn5ccc(Cl)cc45)cn3)cn2c1 [Example I-96, 2-((4-(((7-chloroimidazo[1,5-a]pyridin-1-yl)methyl)carbamoyl)-1H-pyrazol-1-yl)methyl)imidazo[1,2-a]pyridine-6-carboxylic acid] | > 2000 nM |  |
| CNc1cccc2nc(Cn3cc(C(=O)NCc4ncn5ccc(Cl)cc45)cn3)cn12 [Example I-77, N-((7-chloroimidazo[1,5-a]pyridin-1-yl)methyl)-1-((5-(methylamino)imidazo[1,2-a]pyridin-2-yl)methyl)-1H-pyrazole-4-carboxamide] | 10 to 100 nM |  |
| O=C(NCc1ncn2ccc(Br)cc12)c1cnn(Cc2cn3c(F)c(C4CC4)ccc3n2)c1 [Example I-60, N-((7-bromoimidazo[1,5-a]pyridin-1-yl)methyl)-1-((6-cyclopropyl-5-fluoroimidazo[1,2-a]pyridin-2-yl)methyl)-1H-pyrazole-4-carboxamide] | < 1 nM |  |
| O=C(NCc1ncn2ccc(Cl)cc12)c1cn(Cc2cn3cc(C4CC4)ccc3n2)nc1C1CC1 [Example I-78, N-((7-chloroimidazo[1,5-a]pyridin-1-yl)methyl)-3-cyclopropyl-1-((6-cyclopropylimidazo[1,2-a]pyridin-2-yl)methyl)-1H-pyrazole-4-carboxamide] | < 1 nM |  |
| CCOC(=O)c1c(Cn2cc(C(=O)NCc3ncn4ccc(Cl)c(F)c34)nn2)cc2ccc(C3CC3)cn12 [Example I-268, ethyl 2-((4-(((7-chloro-8-fluoroimidazo[1,5-a]pyridin-1-yl)methyl)carbamoyl)-1H-1,2,3-triazol-1-yl)methyl)-6-cyclopropylindolizine-3-carboxylate] | 1 to 10 nM |  |
| O=C(NCc1ncn2ccc(Cl)c(F)c12)c1cn(Cc2cn3cc(C4CC4)cc(-n4cnnc4)c3n2)nn1 [Example I-180, N-((7-chloro-8-fluoroimidazo[1,5-a]pyridin-1-yl)methyl)-1-((6-cyclopropyl-8-(4H-1,2,4-triazol-4-yl)imidazo[1,2-a]pyridin-2-yl)methyl)-1H-1,2,3-triazole-4-carboxamide] | < 1 nM |  |
| O=C(NCc1ncn2ccc(Cl)cc12)c1cnn(Cc2cn3cc(C4CC4)cc(CCCO)c3n2)c1 [Example I-107, N-((7-chloroimidazo[1,5-a]pyridin-1-yl)methyl)-1-((6-cyclopropyl-8-(3-hydroxypropyl)imidazo[1,2-a]pyridin-2-yl)methyl)-1H-pyrazole-4-carboxamide] | < 1 nM |  |
| O=C(NCc1ncn2ccc(Cl)c(F)c12)c1cn(Cc2cn3nc(C4CC4)ccc3n2)nn1 [Example I-150, N-((7-chloro-8-fluoroimidazo[1,5-a]pyridin-1-yl)methyl)-1-((6-cyclopropylimidazo[1,2-b]pyridazin-2-yl)methyl)-1H-1,2,3-triazole-4-carboxamide] | < 1 nM |  |
| O=C(NCc1ncn2ccc(Cl)c(F)c12)c1cnn(Cc2ccc3nccnc3c2)c1 [Example I-293, N-((7-chloro-8-fluoroimidazo[1,5-a]pyridin-1-yl)methyl)-1-(quinoxalin-6-ylmethyl)-1H-pyrazole-4-carboxamide] | 10 to 100 nM |  |
| O=C(NCc1nc(C(F)F)n2ccc(Br)cc12)c1cnn(Cc2cn3cc(C4CC4)ccc3n2)c1 [Example I-83, N-((7-bromo-3-(difluoromethyl)imidazo[1,5-a]pyridin-1-yl)methyl)-1-((6-cyclopropylimidazo[1,2-a]pyridin-2-yl)methyl)-1H-pyrazole-4-carboxamide] | 10 to 100 nM |  |
| O=C(NCc1ncn2ccc(Cl)cc12)c1cnn(Cc2ccc3ncc(Cl)cc3c2)c1 [Example I-1, N-((7-chloroimidazo[1,5-a]pyridin-1-yl)methyl)-1-((3-chloroquinolin-6-yl)methyl)-1H-pyrazole-4-carboxamide] | 10 to 100 nM |  |
| Cc1ccc2nc(Cn3cc(C(=O)NCc4ncn5ccc(Cl)cc45)cn3)cn2c1 [Example I-64, N-((7-chloroimidazo[1,5-a]pyridin-1-yl)methyl)-1-((6-methylimidazo[1,2-a]pyridin-2-yl)methyl)-1H-pyrazole-4-carboxamide] | 1 to 10 nM |  |
| O=C(NCc1ncn2ccc(Cl)c(F)c12)c1cn(Cc2cn3cc(C4CC4)cc(CN4CCCC4)c3n2)nn1 [Example I-295, N-((7-chloro-8-fluoroimidazo[1,5-a]pyridin-1-yl)methyl)-1-((6-cyclopropyl-8-(pyrrolidin-1-ylmethyl)imidazo[1,2-a]pyridin-2-yl)methyl)-1H-1,2,3-triazole-4-carboxamide] | < 1 nM |  |
| O=C(NCc1ncn2ccc(Cl)cc12)c1nnc(Cc2cn3cc(C4CC4)ccc3n2)s1 [Example I-70, N-((7-chloroimidazo[1,5-a]pyridin-1-yl)methyl)-5-((6-cyclopropylimidazo[1,2-a]pyridin-2-yl)methyl)-1,3,4-thiadiazole-2-carboxamide] | 10 to 100 nM |  |
| O=C(NCc1ncn2ccc(Br)cc12)c1cnn(Cc2cn3cc(C4CC4)cnc3n2)c1 [Example I-76, N-((7-bromoimidazo[1,5-a]pyridin-1-yl)methyl)-1-((6-cyclopropylimidazo[1,2-a]pyrimidin-2-yl)methyl)-1H-pyrazole-4-carboxamide] | < 1 nM |  |
